From PMC4441267

Assay: CuAAC macrocyclisation of azide/terminal alkyne linear peptidomimetics to 1,4-triazole (CuI 2 eq, DIPEA 3 eq, Ar-degassed), then Boc removal (TMSCl/MeOH GP4; HCl/dioxane GP5 for A13w, J13w)
Details: THF (reflux), 1.2 mM, 66.0 °C, 18.0 h, 2 steps

`COC(=O)[C@@H]1CCCCn2cc(nn2)CCCC(=O)NCCCC[C@H](NC(=O)OC(C)(C)C)C(=O)N1` [Boc-Lys(5-hexynoyl)-Lys(N3)-OMe] gave a ring closure, yield over several steps (from C#CCCCC(=O)NCCCC[C@H](NC(=O)OC(C)(C)C)C(=O)N[C@@H](CCCCN=[N+]=[N-])C(=O)OC, 20-membered ring) of 98%.
`COC(=O)[C@@H]1CCCCNC(=O)[C@H](Cc2ccccc2)n2cc(nn2)CNC(=O)NCC[C@H](NC(=O)OC(C)(C)C)C(=O)N1` [Boc-Dab(CONH-propargyl)-Lys(N3-Phe)-OMe] showed a ring closure, yield over several steps (from C#CCNC(=O)NCC[C@H](NC(=O)OC(C)(C)C)C(=O)N[C@@H](CCCCNC(=O)[C@H](Cc1ccccc1)N=[N+]=[N-])C(=O)OC, 20-membered ring) of 80%.
`COC(=O)[C@@H]1CCCn2cc(nn2)CCCC(=O)Nc2ccc(cc2)C[C@H](NC(=O)OC(C)(C)C)C(=O)N[C@@H](C)C(=O)N1` [Boc-Phe(4-NH-5-hexynoyl)-Ala-Orn(N3)-OMe] gave a ring closure, yield over several steps (from C#CCCCC(=O)Nc1ccc(C[C@H](NC(=O)OC(C)(C)C)C(=O)N[C@@H](C)C(=O)N[C@@H](CCCN=[N+]=[N-])C(=O)OC)cc1, 23-membered ring) of 21%.
For `COC(=O)[C@@H]1CNC(=O)[C@H](Cc2ccccc2)n2cc(nn2)CCC(=O)NCCCC[C@H](NC(=O)OC(C)(C)C)C(=O)N1` [Boc-Lys(4-pentynoyl)-Dap(N3-Phe)-OMe], the ring closure, yield over several steps (from C#CCCC(=O)NCCCC[C@H](NC(=O)OC(C)(C)C)C(=O)N[C@@H](CNC(=O)[C@H](Cc1ccccc1)N=[N+]=[N-])C(=O)OC, 19-membered ring) was 98%.
Work on `COC(=O)[C@@H]1CCCCNC(=O)[C@H](Cc2ccccc2)n2cc(nn2)CCCC(=O)Nc2ccc(cc2)C[C@H](NC(=O)OC(C)(C)C)C(=O)N1` [Boc-Phe(4-NH-5-hexynoyl)-Lys(N3-Phe)-OMe] yielded a ring closure, yield over several steps (from C#CCCCC(=O)Nc1ccc(C[C@H](NC(=O)OC(C)(C)C)C(=O)N[C@@H](CCCCNC(=O)[C@H](Cc2ccccc2)N=[N+]=[N-])C(=O)OC)cc1, 24-membered ring) of 11%.
`COC(=O)[C@@H]1CNC(=O)[C@H](Cc2ccccc2)n2cc(nn2)CCCC(=O)NCCC[C@H](NC(=O)OC(C)(C)C)C(=O)N1` [Boc-Orn(5-hexynoyl)-Dap(N3-Phe)-OMe] showed a ring closure, yield over several steps (from C#CCCCC(=O)NCCC[C@H](NC(=O)OC(C)(C)C)C(=O)N[C@@H](CNC(=O)[C@H](Cc1ccccc1)N=[N+]=[N-])C(=O)OC, 19-membered ring) of 99%.
Compound `COC(=O)[C@@H]1CCCn2cc(nn2)CCC(=O)NCCC[C@H](NC(=O)OC(C)(C)C)C(=O)N1` [Boc-Orn(4-pentynoyl)-Orn(N3)-OMe] has a ring closure, yield over several steps (from C#CCCC(=O)NCCC[C@H](NC(=O)OC(C)(C)C)C(=O)N[C@@H](CCCN=[N+]=[N-])C(=O)OC, 17-membered ring) of 85%.
For `COC(=O)[C@@H]1CCCCNC(=O)[C@H](Cc2ccccc2)n2cc(nn2)CCCC(=O)NCCCC[C@H](NC(=O)OC(C)(C)C)C(=O)N1` [Boc-Lys(5-hexynoyl)-Lys(N3-Phe)-OMe], the ring closure, yield over several steps (from C#CCCCC(=O)NCCCC[C@H](NC(=O)OC(C)(C)C)C(=O)N[C@@H](CCCCNC(=O)[C@H](Cc1ccccc1)N=[N+]=[N-])C(=O)OC, 23-membered ring) was 54%.
Compound `COC(=O)[C@@H]1CCCCNC(=O)[C@H](Cc2ccccc2)n2cc(nn2)CCC(=O)NC[C@H](NC(=O)OC(C)(C)C)C(=O)N1` [Boc-Dap(4-pentynoyl)-Lys(N3-Phe)-OMe] has a ring closure, yield over several steps (from C#CCCC(=O)NC[C@H](NC(=O)OC(C)(C)C)C(=O)N[C@@H](CCCCNC(=O)[C@H](Cc1ccccc1)N=[N+]=[N-])C(=O)OC, 19-membered ring) of 99%.
`COC(=O)[C@@H]1CCCn2cc(nn2)CCCC(=O)NC[C@H](NC(=O)OC(C)(C)C)C(=O)N1` [Boc-Dap(5-hexynoyl)-Orn(N3)-OMe] showed a ring closure, yield over several steps (from C#CCCCC(=O)NC[C@H](NC(=O)OC(C)(C)C)C(=O)N[C@@H](CCCN=[N+]=[N-])C(=O)OC, 16-membered ring) of 52%.
Work on `COC(=O)[C@@H]1CCCCn2cc(nn2)CCC(=O)NCCC[C@H](NC(=O)OC(C)(C)C)C(=O)N1` [Boc-Orn(4-pentynoyl)-Lys(N3)-OMe] yielded a ring closure, yield over several steps (from C#CCCC(=O)NCCC[C@H](NC(=O)OC(C)(C)C)C(=O)N[C@@H](CCCCN=[N+]=[N-])C(=O)OC, 18-membered ring) of 93%.
Compound `COC(=O)[C@@H]1CCCn2cc(nn2)CCC(=O)NCC[C@H](NC(=O)OC(C)(C)C)C(=O)N1` [Boc-Dab(4-pentynoyl)-Orn(N3)-OMe] has a ring closure, yield over several steps (from C#CCCC(=O)NCC[C@H](NC(=O)OC(C)(C)C)C(=O)N[C@@H](CCCN=[N+]=[N-])C(=O)OC, 16-membered ring) of 99%.
In the case of `COC(=O)[C@@H]1CNC(=O)[C@H](Cc2ccccc2)n2cc(nn2)CCCC(=O)NCCCC[C@H](NC(=O)OC(C)(C)C)C(=O)N1` [Boc-Lys(5-hexynoyl)-Dap(N3-Phe)-OMe], the ring closure, yield over several steps (from C#CCCCC(=O)NCCCC[C@H](NC(=O)OC(C)(C)C)C(=O)N[C@@H](CNC(=O)[C@H](Cc1ccccc1)N=[N+]=[N-])C(=O)OC, 20-membered ring) is reported as 61%.
In the case of `COC(=O)[C@@H]1CCCCn2cc(nn2)CNC(=O)NC[C@H](NC(=O)OC(C)(C)C)C(=O)N1` [Boc-Dap(CONH-propargyl)-Lys(N3)-OMe], the ring closure, yield over several steps (from C#CCNC(=O)NC[C@H](NC(=O)OC(C)(C)C)C(=O)N[C@@H](CCCCN=[N+]=[N-])C(=O)OC, 16-membered ring) is reported as 56%.
For `COC(=O)[C@@H]1CNC(=O)[C@H](Cc2ccccc2)n2cc(nn2)CCCC(=O)NC[C@H](NC(=O)OC(C)(C)C)C(=O)N1` [Boc-Dap(5-hexynoyl)-Dap(N3-Phe)-OMe], the ring closure, yield over several steps (from C#CCCCC(=O)NC[C@H](NC(=O)OC(C)(C)C)C(=O)N[C@@H](CNC(=O)[C@H](Cc1ccccc1)N=[N+]=[N-])C(=O)OC, 17-membered ring) was 99%.
For `COC(=O)[C@@H]1CCCCn2cc(nn2)CCCC(=O)NCC[C@H](NC(=O)OC(C)(C)C)C(=O)N1` [Boc-Dab(5-hexynoyl)-Lys(N3)-OMe], the ring closure, yield over several steps (from C#CCCCC(=O)NCC[C@H](NC(=O)OC(C)(C)C)C(=O)N[C@@H](CCCCN=[N+]=[N-])C(=O)OC, 18-membered ring) was 99%.
`COC(=O)[C@@H]1CCCCn2cc(nn2)CCC(=O)NCC[C@H](NC(=O)OC(C)(C)C)C(=O)N1` [Boc-Dab(4-pentynoyl)-Lys(N3)-OMe] showed a ring closure, yield over several steps (from C#CCCC(=O)NCC[C@H](NC(=O)OC(C)(C)C)C(=O)N[C@@H](CCCCN=[N+]=[N-])C(=O)OC, 17-membered ring) of 62%.
In the case of `COC(=O)[C@@H]1CCCn2cc(nn2)CNC(=O)NC[C@H](NC(=O)OC(C)(C)C)C(=O)N[C@H](C(=O)OC)CCC(=O)N1` [Boc-Dap(CONH-propargyl)-Glu(gamma-Orn(N3)-OMe)-OMe], the ring closure, yield over several steps (from C#CCNC(=O)NC[C@H](NC(=O)OC(C)(C)C)C(=O)N[C@@H](CCC(=O)N[C@@H](CCCN=[N+]=[N-])C(=O)OC)C(=O)OC, 20-membered ring) is reported as 78%.
`COC(=O)[C@@H]1CCCCNC(=O)[C@H](Cc2ccccc2)n2cc(nn2)CNC(=O)NCCCC[C@H](NC(=O)OC(C)(C)C)C(=O)N1` [Boc-Lys(CONH-propargyl)-Lys(N3-Phe)-OMe] gave a ring closure, yield over several steps (from C#CCNC(=O)NCCCC[C@H](NC(=O)OC(C)(C)C)C(=O)N[C@@H](CCCCNC(=O)[C@H](Cc1ccccc1)N=[N+]=[N-])C(=O)OC, 22-membered ring) of 99%.
`COC(=O)[C@@H]1CCCn2cc(nn2)CNC(=O)NCC[C@H](NC(=O)OC(C)(C)C)C(=O)N1` [Boc-Dab(CONH-propargyl)-Orn(N3)-OMe] gave a ring closure, yield over several steps (from C#CCNC(=O)NCC[C@H](NC(=O)OC(C)(C)C)C(=O)N[C@@H](CCCN=[N+]=[N-])C(=O)OC, 16-membered ring) of 29%.
With `COC(=O)[C@@H]1CNC(=O)[C@H](Cc2ccccc2)n2cc(nn2)CNC(=O)NCCCC[C@H](NC(=O)OC(C)(C)C)C(=O)N1` [Boc-Lys(CONH-propargyl)-Dap(N3-Phe)-OMe] the ring closure, yield over several steps (from C#CCNC(=O)NCCCC[C@H](NC(=O)OC(C)(C)C)C(=O)N[C@@H](CNC(=O)[C@H](Cc1ccccc1)N=[N+]=[N-])C(=O)OC, 19-membered ring) was 70%.
`COC(=O)[C@@H]1CCCCNC(=O)[C@H](Cc2ccccc2)n2cc(nn2)CCC(=O)NCCC[C@H](NC(=O)OC(C)(C)C)C(=O)N1` [Boc-Orn(4-pentynoyl)-Lys(N3-Phe)-OMe] showed a ring closure, yield over several steps (from C#CCCC(=O)NCCC[C@H](NC(=O)OC(C)(C)C)C(=O)N[C@@H](CCCCNC(=O)[C@H](Cc1ccccc1)N=[N+]=[N-])C(=O)OC, 21-membered ring) of 88%.
`COC(=O)[C@@H]1CNC(=O)[C@H](Cc2ccccc2)n2cc(nn2)CCC(=O)NC[C@H](NC(=O)OC(C)(C)C)C(=O)N1` [Boc-Dap(4-pentynoyl)-Dap(N3-Phe)-OMe] showed a ring closure, yield over several steps (from C#CCCC(=O)NC[C@H](NC(=O)OC(C)(C)C)C(=O)N[C@@H](CNC(=O)[C@H](Cc1ccccc1)N=[N+]=[N-])C(=O)OC, 16-membered ring) of 83%.
Compound `COC(=O)[C@@H]1CCCn2cc(nn2)CCC(=O)NC[C@H](NC(=O)OC(C)(C)C)C(=O)N1` [Boc-Dap(4-pentynoyl)-Orn(N3)-OMe] has a ring closure, yield over several steps (from C#CCCC(=O)NC[C@H](NC(=O)OC(C)(C)C)C(=O)N[C@@H](CCCN=[N+]=[N-])C(=O)OC, 15-membered ring) of 53%.
